# “Also recorded” adds a separate entry of the source.
# Columns and labels:
# [1] = system: FAP-transfected HEK tumor xenograft; assay: Anticancer activity in FAP-transfected HEK tumor xenograft, 40-day study; format: in vivo, mice
# Description: Having determined the levels of FAP expression in the HEK xenograft model, the anticancer activity of ARI-3996 was next evaluated in a 40-day study. […] It also suffers conformation-dependent inactivation over time.
# FAP = assay: Activation of ARI-3996 to release ARI-2727 in FAP knockout versus FAP+ mice; format: in vivo; settings: FAP+ mice treated with ARI-3996
# Method: Mouse models may over-report systemic toxicity of ARI-3996 compared with that possible in cancer patients. This was further verified by treatment of FAP knockout mice with ARI-3996. In knockout mice (FIG. 21), no activation of ARI-3996 to release ARI-2727 took place, whereas in FAP+ mice a concentration of the released warhead ARI-2727 of 150 ng/mL was reached.
# solid tumors = assay: Cytotoxicity toward solid tumors; format: cell-based
# normal cells = assay: Cytotoxicity toward normal cells; format: cell-based
# [2] = Tissue distribution of Velcade, ARI-3996 and ARI-2727D in mice; format: in vivo
# Method: ARI-3996 is cleaved to ARI-2727D in and around tumors, thus facilitating the buildup of ARI-2727D in tumors.
# Velcade®'s high toxicity would also result from the accumulation of the drug in the organs at the expense of accumulation in the tumor. […] Thus ARI-2727D is being selectively delivered to solid tumors via FAP activation of ARI-3996.
# Finally, FAP activation was verified as the mode by which ARI-2727D tumor accumulation was taking place. In FIG. 24, ARI-2727D concentrations at 1 hour post-injection were compared with ARI-2727D concentrations 1 hour after injection of the prodrug form (ARI-3996).
# MM cell lines = assay: Cytotoxicity toward Multiple Myeloma cell lines; format: cell-based; settings: various MM cell lines
# recombinant FAP = molecular target: T1, recombinant FAP (Homo sapiens, UniProt Q12884); assay: In vitro cleavage of fluorogenic substrate ARI-3144 (AMC fluorescence); format: biochemical; settings: fluorescence of released AMC
# T1 sequence (Q12884 1-760): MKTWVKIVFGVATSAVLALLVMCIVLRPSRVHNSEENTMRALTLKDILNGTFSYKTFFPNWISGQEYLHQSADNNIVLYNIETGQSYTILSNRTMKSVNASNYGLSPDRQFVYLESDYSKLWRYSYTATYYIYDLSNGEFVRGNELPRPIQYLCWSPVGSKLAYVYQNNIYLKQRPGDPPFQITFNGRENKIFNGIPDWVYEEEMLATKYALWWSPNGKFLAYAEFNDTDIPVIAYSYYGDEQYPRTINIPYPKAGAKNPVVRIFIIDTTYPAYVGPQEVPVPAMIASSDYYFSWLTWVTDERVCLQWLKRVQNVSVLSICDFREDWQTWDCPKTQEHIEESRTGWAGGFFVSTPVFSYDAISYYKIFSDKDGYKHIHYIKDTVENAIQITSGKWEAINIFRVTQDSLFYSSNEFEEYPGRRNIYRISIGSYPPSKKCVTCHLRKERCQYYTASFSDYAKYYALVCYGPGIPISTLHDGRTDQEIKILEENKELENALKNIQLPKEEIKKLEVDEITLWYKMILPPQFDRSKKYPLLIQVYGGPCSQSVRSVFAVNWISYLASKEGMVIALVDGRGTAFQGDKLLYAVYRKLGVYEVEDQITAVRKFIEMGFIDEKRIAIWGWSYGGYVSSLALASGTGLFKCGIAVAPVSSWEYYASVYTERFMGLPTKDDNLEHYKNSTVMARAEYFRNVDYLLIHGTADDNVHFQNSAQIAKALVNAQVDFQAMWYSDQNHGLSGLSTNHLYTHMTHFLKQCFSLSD
# Description: (§1) Cleavage was monitored by measuring fluorescence of the AMC leaving group (excitation, 355 nm; emission, 460 nm).
# (§2) The D-alanine at P2 of the fluorogenic substrate, N-(Quinoline-4-carbonyl)-D-Ala-Pro-AMC [AMC=7-amino-4-methylcoumarin] (ARI-3144), confers selectivity for FAP so that it is cleaved to release fluorescent AMC by recombinant FAP but not by other DPP-IV-like proteases (FIG. 3). […] FAP is reportedly not expressed constitutively in healthy tissue with the exception of endometrium, although FAP proteolytic activity is detectable in plasma. […] The ability to measure FAP proteolytic activity in tumors is required to evaluate the usefulness of ARI-3996 as a chemotherapeutic agent. Hitherto, FAP activity has not been quantified in human or mouse tumors. […] We will use the assay to select a mouse tumor model for investigation of ARI-3996's activity in which the increase in tumor-associated FAP activity relative to plasma is equivalent to that in human epithelial cancer.
# PREP = molecular target: T2, PREP (Homo sapiens, UniProt P48147); assay: as above; format: biochemical; settings: fluorescence of released AMC
# T2 sequence (P48147 1-710): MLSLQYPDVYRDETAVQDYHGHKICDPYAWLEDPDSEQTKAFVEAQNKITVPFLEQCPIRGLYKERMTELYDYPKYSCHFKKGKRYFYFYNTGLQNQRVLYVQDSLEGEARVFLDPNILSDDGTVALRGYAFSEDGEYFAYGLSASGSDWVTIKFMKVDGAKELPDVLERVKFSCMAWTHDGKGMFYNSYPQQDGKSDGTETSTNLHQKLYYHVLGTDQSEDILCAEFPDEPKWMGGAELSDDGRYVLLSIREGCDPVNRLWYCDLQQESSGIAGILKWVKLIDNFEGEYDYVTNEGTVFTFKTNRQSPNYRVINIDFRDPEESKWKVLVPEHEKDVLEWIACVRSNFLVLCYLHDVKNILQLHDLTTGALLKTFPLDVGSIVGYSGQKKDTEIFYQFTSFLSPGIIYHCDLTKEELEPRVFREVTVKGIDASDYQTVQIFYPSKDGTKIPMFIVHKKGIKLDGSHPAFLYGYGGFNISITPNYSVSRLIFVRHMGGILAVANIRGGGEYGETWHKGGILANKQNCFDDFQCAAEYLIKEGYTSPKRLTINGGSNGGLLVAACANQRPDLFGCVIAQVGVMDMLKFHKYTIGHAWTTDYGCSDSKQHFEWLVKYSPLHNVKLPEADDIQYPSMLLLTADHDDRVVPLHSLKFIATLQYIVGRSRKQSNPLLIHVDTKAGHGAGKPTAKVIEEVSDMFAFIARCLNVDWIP
# Description: as §1, §2
# DPP8 = DPP8 (Homo sapiens, UniProt Q6V1X1); assay: as above; format: biochemical; settings: fluorescence of released AMC
# Sequence of DPP8 (Q6V1X1 whole entry, species assumed): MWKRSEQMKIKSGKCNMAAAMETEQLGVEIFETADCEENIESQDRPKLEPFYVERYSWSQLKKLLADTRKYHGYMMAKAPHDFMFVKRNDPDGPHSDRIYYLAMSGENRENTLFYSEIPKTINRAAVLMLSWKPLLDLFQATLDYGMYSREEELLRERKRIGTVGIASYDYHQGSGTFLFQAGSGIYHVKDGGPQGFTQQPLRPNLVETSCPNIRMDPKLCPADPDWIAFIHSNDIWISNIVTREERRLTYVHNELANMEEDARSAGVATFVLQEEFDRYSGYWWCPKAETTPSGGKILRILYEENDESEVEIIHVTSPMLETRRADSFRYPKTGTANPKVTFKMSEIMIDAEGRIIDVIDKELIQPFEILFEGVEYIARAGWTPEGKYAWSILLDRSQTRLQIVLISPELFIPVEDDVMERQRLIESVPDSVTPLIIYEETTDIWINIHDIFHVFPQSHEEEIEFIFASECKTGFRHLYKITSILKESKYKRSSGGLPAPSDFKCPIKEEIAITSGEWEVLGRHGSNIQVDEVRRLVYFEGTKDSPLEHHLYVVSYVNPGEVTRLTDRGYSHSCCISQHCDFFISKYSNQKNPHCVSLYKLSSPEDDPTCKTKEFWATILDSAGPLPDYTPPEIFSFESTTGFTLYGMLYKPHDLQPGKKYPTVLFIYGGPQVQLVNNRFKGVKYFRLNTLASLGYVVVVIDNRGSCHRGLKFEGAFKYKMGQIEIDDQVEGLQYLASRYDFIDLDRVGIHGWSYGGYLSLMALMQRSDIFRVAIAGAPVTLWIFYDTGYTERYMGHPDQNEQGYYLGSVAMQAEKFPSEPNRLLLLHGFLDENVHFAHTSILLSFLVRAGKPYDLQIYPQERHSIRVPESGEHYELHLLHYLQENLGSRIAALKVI
# Description: as §1, §2
# DPPIV = DPPIV (Homo sapiens, UniProt P27487); assay: as above; format: biochemical; settings: fluorescence of released AMC
# Sequence of DPPIV (P27487 whole entry, species assumed): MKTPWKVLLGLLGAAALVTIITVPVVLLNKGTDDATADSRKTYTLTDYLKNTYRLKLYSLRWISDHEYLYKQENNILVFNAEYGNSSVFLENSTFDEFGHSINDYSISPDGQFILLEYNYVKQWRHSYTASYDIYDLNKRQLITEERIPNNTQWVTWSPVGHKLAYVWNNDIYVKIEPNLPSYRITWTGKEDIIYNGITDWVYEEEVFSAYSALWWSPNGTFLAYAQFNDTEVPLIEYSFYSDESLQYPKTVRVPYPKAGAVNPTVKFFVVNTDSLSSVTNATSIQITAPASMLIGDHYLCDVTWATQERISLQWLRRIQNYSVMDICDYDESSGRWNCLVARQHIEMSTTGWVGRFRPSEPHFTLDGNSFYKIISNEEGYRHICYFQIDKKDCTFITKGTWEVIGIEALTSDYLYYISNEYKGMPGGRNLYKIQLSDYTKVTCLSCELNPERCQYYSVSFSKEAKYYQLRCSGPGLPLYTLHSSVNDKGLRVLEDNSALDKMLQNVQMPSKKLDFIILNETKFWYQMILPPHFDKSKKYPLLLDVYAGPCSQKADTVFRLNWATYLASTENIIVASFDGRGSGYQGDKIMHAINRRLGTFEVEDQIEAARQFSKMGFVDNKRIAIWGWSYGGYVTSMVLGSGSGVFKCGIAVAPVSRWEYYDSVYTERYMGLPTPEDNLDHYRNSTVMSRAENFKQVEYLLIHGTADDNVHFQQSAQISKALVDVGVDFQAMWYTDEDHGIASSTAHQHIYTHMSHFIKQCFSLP
# Description: as §1, §2
# DPP9 = DPP9 (Homo sapiens, UniProt Q86TI2); assay: as above; format: biochemical; settings: fluorescence of released AMC
# Sequence of DPP9 (Q86TI2 whole entry, species assumed): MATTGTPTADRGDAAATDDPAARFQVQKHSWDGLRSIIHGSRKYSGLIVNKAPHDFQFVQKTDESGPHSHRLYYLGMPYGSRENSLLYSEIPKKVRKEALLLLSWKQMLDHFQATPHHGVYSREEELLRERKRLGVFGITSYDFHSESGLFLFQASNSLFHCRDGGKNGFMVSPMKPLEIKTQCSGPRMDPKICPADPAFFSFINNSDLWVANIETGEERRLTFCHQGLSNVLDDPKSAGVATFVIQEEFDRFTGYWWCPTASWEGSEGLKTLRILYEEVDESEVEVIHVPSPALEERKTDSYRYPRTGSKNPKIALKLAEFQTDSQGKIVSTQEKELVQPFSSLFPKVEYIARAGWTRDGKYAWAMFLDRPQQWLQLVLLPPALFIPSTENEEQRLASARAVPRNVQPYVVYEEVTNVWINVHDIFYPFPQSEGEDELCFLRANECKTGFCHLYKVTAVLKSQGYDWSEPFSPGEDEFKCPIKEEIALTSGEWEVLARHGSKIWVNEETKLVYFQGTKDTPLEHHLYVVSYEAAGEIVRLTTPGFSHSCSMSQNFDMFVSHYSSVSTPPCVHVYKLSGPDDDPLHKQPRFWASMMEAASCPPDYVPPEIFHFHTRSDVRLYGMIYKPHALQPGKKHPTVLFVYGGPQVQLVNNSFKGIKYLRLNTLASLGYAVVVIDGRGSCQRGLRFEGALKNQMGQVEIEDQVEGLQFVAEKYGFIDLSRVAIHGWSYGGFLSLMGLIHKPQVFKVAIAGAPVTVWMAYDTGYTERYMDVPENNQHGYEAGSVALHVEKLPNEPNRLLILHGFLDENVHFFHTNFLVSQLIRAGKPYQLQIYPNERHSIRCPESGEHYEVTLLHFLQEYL
# Description: as §1, §2
# DPPII = DPPII (Homo sapiens, UniProt Q9UHL4); assay: as above; format: biochemical; settings: fluorescence of released AMC
# Description: as §2
# [3] = system: HPAF-II carcinoma xenografts; settings: HPAF-II xenograft; ARI-3996 100 mg/kg i.p., bortezomib 1 mg/kg
# Method: ARI-3996 and bortezomib were administered twice weekly (day (D)1/D4 schedule), and ARI-3996 was also given from day 1 to day 5 for 5 consecutive days (QD×5 schedule).
# One-way ANOVA with Dunnett's post test for test versus vehicle (P<0.0001).
# ARI-3996 b.i.d. s.c. and gemcitabine once per day i.p. were administered twice weekly. Mean±SEM.
# U266 tumor xenografts = assay: Anticancer effects in U266 tumor-bearing mice (ELISA and bioluminescence); format: in vivo; settings: ARI-3996 50 mg/kg, Velcade 0.5 mg/kg, twice a week for 2 weeks
# Method: ARI-3996 consistently outperformed Velcade® in a mouse MM model. Mice bearing U266 tumor xenografts (2 female, 2 male) were treated with either the vehicle, ARI-3996, or Velcade® twice a week (day 1 and day 4) for 2 weeks. […] The inhibition of the tumor was evaluated using ELISA (μg/mL) and bioluminescence.
# [4] = Maximum tolerated dose in mice; format: in vivo
# [5] = mice bearing PC3 prostate tumors; cited from earlier work
structure (smiles),measurement,setting,value
"CC(C)CC(NC(=O)C(N)Cc1cccc2ccccc12)B(O)O (centres unmarked) [ARI-2727D, Ala(1-Nal)-boroLeu]",Tumor growth inhibition,[1],potent tumor inhibition
same,Concentration of the released warhead ARI-2727,FAP,150 ng/mL
same,Cytotoxicity,solid tumors,much lower
same,Cytotoxicity,normal cells,slightly lower toxicity
same,Tissue distribution of ARI-2727D after injection of prodrug,[2]; 1 hour after injection of ARI-3996,highest concentration of ARI-2727D was found in the tumor
same,Tissue distribution of ARI-2727D after direct injection,[2]; 1 hour post-injection of ARI-2727D,highest concentration of the drug accumulating in the kidneys and lung
same,Tissue distribution of ARI-2727D formed from ARI-3996,[2]; mice given ARI-3996,much higher relative concentrations in the tumor
same,Cytotoxicity,MM cell lines,extremely high potency
"Cc1cc(=O)oc2cc(NC(=O)[C@@H]3CCCN3C(=O)[C@@H](C)NC(=O)c3ccnc4ccccc34)ccc12 [ARI-3144, N-(Quinoline-4-carbonyl)-D-Ala-Pro-AMC]",Cleavage by FAP,recombinant FAP,excellent substrate for FAP
same,Cleavage by PREP,PREP,no cleavage
same,Cleavage by DPP8,DPP8,no cleavage
same,Cleavage by DPPIV,DPPIV,no cleavage
same,Cleavage by DPP9,DPP9,no cleavage
same,Cleavage by DPPII,DPPII,no cleavage
"CC(C)C[C@H](NC(=O)[C@H](Cc1ccccc1)NC(=O)c1cnccn1)B(O)O [bortezomib, reference compound]",Antitumor effect at MTD,[3],refractory; also recorded: lacks significant antitumor activity
same,Tumor growth inhibition,[1],hardly slowed the growth of the tumors
same,Cytotoxicity,solid tumors,much lower
same,Cytotoxicity,normal cells,slightly lower toxicity
same,Tissue distribution of the administered drug,"[2]; mouse, in vivo","much higher concentrations in the heart, lung, kidney, liver, spleen, and lung than in the tumor"
same,Deaths / survival,U266 tumor xenografts,1
same,Cytotoxicity,MM cell lines,extremely high potency
same,MTD (maximum tolerated dose),[4],1 mg/kg
CC(C)C[C@H](NC(=O)[C@H](Cc1ccccc1)NC(=O)c1cnccn1)B(O)O [^14C-bortezomib],Healthy organ exposure relative to tumor exposure,[5],≤ 9 fold

# From patent US12214047B2, “FAP-activated proteasome inhibitors for treating solid tumors” (Trustees of Tufts College, priority 2011, dated 2025)
